The source of these data is US8946431B2, “2-(substituted ethynyl)quinoline derivatives as mGLUr5 antagonists” (Korea Institute of Science and Technology, priority 2013, dated 2015).

Each structure is given as a SMILES string.

Data set [1] addresses T1, mGluR5 (Homo sapiens, UniProt P41594).
T1 construct: host or cells: HEK293 (human embryonic kidney) cells stably expressing m-GluR5
The data set is described as follows: Assay for m-GluR5 activity using FDSS6000 (calcium mobilization by L-glutamate in mGluR5/HEK293 cells). The format is cell-based. Conditions: L-glutamate 10 uM, HEK cells expressing m-GluR5; for inhibition at 1 µM / inhibition at 10 µM: HEK293, read-out: % Inhibition rate (mGluR5). The protocol:
Inhibitory activity (%) of the compound represented by Formula 1 on calcium mobilization developed at a high concentration of glutamate in mGluR5/HEK293 cells was measured by using a high throughput FDSS6000.
After HEK cells stably expressing m-GluR5 (Human embryonic kidney cell line; m-GluR5: Yonsei University) were prepared at a density of 4×10^4/Ml per well, aliquots of 100 μl from the cell suspension were distributed evenly into a 96-well plate and incubated for 18 hr at 37° C., 5% CO2. The well plate was washed with a HBSS buffer to remove the culture medium, and reacted with a HBSS buffer containing a Ca^2+ fluorescent dye (FLIPR Calcium 5 assay kit: Molecular Devices) for 30 min at 37° C., 5% CO2, thereby labeling with the fluorescent dye. Separately from the 96-well plate including the cells, another 96-well plate including L-glutamate (final concentration: 10 uM) capable of activating m-GluR5 and a blacking agent was prepared. Since most of cell-based HTS devices are equipped with a liquid application system for injection of a drug, but have no liquid sucking system, the blocking agent to be tested and L-glutamate were respectively provided at a 6-fold higher concentration in a HBSS buffer at the amount of 25 μl, diluted by six-times at the final cell plate volume of 150 μl, and then used in this assay. Briefly, the FDSS6000 assay was carried out by recording a reference level of 20 sec, pre-treating with a blocking agent for 75 sec, and then measuring the change in intracellular calcium level depending on the administration of L-glutamate. After the area of a 480/520 ratio value in a control without treatment of a test drug was set to 100%, an inhibitory effect of the test drug was calculated as a percentage (%) thereon.
For accurate calcium imaging, the light source of 4 xenon lamps in FDSS6000 were radiated to selectively expose the cells to the excitation wavelength (480 nm) by a computer-controlled filter wheel. Data were obtained at intervals of 1.23 sec. The emitter fluorescence light inflowed through a 520 nm long-pass filter was obtained as an average 480/520 ratio value for each well in the 96-wells by using a CCD camera and a digital fluorescence analyzer in FDSS6000. All image data and analyses were obtained by using a FDSS6000-exclusive program from Hamamatsu Photonics.

Data set [2] can be described thus: HLM (human liver microsomal) stability. The format is in vitro ADME. The settings on record: human liver microsomes.
The target of data set [3] is CYP2D6 (Homo sapiens, UniProt P10635). The data set is described as follows: CYP inhibitory rate, CYP2D6. It counts as in vitro ADME.
CYP2D6, sequence (P10635 whole entry): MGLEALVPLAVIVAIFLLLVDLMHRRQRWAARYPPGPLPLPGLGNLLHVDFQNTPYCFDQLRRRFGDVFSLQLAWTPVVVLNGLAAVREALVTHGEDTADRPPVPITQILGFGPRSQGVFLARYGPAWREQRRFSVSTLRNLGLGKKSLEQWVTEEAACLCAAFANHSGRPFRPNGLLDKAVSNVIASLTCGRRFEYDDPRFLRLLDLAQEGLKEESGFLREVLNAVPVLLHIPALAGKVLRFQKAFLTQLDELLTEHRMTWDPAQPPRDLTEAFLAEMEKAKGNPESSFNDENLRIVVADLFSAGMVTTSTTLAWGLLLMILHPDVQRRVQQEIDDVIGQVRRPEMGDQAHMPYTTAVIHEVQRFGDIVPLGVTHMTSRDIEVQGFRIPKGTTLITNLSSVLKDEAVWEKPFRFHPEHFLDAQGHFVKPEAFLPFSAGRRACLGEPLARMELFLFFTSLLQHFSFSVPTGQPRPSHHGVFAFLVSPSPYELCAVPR
The target in data set [4] is CYP2C9 (Homo sapiens, UniProt P11712). The data set is described as follows: CYP inhibitory rate, CYP2C9. The format is in vitro ADME.
CYP2C9, sequence (P11712 whole entry): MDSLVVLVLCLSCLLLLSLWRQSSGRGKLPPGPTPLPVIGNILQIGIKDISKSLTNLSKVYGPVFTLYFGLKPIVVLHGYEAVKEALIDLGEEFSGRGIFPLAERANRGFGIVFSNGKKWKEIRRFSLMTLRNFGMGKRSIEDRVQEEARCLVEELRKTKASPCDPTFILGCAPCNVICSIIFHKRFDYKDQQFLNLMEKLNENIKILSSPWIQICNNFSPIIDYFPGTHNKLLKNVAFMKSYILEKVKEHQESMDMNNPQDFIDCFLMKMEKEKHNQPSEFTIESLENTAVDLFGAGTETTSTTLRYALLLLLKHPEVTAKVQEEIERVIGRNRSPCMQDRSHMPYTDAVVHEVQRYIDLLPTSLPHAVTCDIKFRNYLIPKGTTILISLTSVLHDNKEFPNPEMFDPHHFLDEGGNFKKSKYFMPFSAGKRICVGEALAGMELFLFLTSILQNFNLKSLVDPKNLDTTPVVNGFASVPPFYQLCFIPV
Data set [5] concerns the target CYP3A4 (Homo sapiens, UniProt P08684). The data set is described as follows: CYP inhibitory rate, CYP3A4. It counts as in vitro ADME.

T1 sequence (P41594 21-1212): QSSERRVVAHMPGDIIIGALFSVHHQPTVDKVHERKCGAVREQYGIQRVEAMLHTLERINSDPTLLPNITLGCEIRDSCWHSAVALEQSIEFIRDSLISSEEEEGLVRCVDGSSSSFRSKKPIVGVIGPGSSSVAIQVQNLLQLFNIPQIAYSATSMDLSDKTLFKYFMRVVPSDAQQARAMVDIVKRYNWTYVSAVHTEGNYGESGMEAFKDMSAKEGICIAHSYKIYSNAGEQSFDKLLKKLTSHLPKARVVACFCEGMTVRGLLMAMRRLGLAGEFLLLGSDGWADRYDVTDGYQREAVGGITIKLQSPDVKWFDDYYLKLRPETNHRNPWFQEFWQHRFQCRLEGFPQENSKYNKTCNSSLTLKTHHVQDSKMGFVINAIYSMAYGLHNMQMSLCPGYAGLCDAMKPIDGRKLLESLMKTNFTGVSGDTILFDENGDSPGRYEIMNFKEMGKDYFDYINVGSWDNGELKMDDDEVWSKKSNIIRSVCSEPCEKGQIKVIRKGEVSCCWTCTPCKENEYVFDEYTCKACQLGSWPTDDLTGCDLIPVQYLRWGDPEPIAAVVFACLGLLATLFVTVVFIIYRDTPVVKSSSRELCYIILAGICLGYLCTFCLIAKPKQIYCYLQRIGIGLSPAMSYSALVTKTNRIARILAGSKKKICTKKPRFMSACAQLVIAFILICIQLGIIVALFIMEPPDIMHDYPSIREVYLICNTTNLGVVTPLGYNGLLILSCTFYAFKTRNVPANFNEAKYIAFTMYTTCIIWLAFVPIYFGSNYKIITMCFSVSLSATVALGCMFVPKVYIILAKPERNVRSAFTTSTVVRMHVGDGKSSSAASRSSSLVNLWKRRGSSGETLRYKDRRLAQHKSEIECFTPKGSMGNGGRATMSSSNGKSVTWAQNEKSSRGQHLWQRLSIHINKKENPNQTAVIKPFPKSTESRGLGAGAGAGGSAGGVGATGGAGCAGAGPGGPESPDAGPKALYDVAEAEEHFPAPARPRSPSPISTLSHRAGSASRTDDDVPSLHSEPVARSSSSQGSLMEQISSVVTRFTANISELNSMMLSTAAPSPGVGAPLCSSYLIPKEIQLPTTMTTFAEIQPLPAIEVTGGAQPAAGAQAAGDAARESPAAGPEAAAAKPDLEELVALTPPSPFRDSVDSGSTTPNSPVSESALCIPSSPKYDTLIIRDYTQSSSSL
CYP3A4, sequence (P08684 whole entry): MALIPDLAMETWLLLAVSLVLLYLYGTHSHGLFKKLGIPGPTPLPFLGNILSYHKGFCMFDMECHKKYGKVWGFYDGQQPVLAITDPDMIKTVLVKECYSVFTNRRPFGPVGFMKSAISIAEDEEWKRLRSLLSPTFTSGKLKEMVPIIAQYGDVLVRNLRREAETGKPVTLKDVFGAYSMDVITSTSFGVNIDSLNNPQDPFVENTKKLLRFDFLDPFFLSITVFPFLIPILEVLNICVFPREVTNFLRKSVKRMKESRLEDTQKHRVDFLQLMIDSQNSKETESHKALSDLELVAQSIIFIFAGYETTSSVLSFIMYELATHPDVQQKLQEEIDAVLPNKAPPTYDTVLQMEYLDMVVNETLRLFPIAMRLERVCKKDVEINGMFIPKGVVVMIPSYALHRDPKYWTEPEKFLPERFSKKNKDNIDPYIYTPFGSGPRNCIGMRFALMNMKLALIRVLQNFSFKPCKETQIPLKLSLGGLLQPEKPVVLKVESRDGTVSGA

For the compound `C(#Cc1ccc2ccccc2n1)c1ccccc1` [Example 11, 2-(Phenylethynyl)quinoline], in data set [1] (1 μM compound), the inhibition at 1 µM stood at 35.9%. In addition, in data set [1] (10 μM compound), the inhibition at 10 µM stood at 67.7%.

With `Clc1cccc2nc(C#Cc3ccccn3)ccc12` [Example 12, 5-Chloro-2-(pyridine-2-ylethynyl)quinoline], the inhibition at 1 µM in data set [1] (1 μM compound) turned out to be 31%. Moreover, the inhibition at 10 µM in data set [1] (10 μM compound) is 64.3%.

Take `FC(F)(F)c1cccnc1C#Cc1ccc2ccccc2n1` [Example 13, 2-((3-(Trifluoromethyl)pyridine-2-yl)ethynyl)quinoline]: in data set [1] (1 μM compound), the inhibition at 1 µM was 9.49%. The inhibition at 10 µM in data set [1] (10 μM compound) turned out to be 16.4%.

With `COc1cccc2nc(C#Cc3ccccc3)ccc12` [Example 14, 5-Methoxy-2-(phenylethynyl)quinoline], the inhibition at 1 µM in data set [1] (1 μM compound) was 63.6%. For the same compound, the inhibition at 10 µM in data set [1] (10 μM compound) was determined as 68%. Moreover, the “HLM % remaining after 30 min” value in data set [2] is reported as under 1%. The “CYP (% remaining @ 10 μM) CYP2D6” value in data set [3] is over 99%. In addition, the “CYP (% remaining @ 10 μM) CYP2C9” value in data set [4] is given as 55%. Also, the “CYP (% remaining @ 10 μM) CYP3A4” value in data set [5] turned out to be 50%.

For the compound `CC(C)(C)C(=O)Oc1cccc2nc(C#Cc3ccccc3)ccc12` [Example 15, 2-(Phenylethynyl)quinoline-5-ylpivalate], the entries for the “% Inhibition rate (mGluR5)” value in data set [1] (1 μM compound) and in data set [1] (10 μM compound) were 24.03% and 23.77%, respectively.

As for `Oc1cccc2nc(C#Cc3ccccc3)ccc12` [Example 16, 2-(Phenylethynyl)quinoline-5-ol], in data set [1] (1 μM compound), the inhibition at 1 µM stood at 18%. Further, the inhibition at 10 µM in data set [1] (10 μM compound) was found to be 24.3%.

For the compound `Clc1cccc2nc(C#Cc3ccccc3)ccc12` [Example 17, 5-Chloro-2-(phenylethynyl)quinoline], in data set [1] (1 μM compound), the inhibition at 1 µM stood at 11.7%. The inhibition at 10 µM in data set [1] (10 μM compound) was found to be 8.02%.

As for `Brc1cccc2nc(C#Cc3ccccc3)ccc12` [Example 18, 5-Bromo-2-(phenylethynyl)quinoline], the inhibition at 1 µM in data set [1] (1 μM compound) came out at 21.1%. Also, in data set [1] (10 μM compound), the inhibition at 10 µM came out at 20.7%.

On to `C(#Cc1ccc2ccccc2n1)c1cccnc1` [Example 19, 2-(Pyridine-3-ylethynyl)quinoline], for which, in data set [1] (1 μM compound), the inhibition at 1 µM is 43.9%. The inhibition at 10 µM in data set [1] (10 μM compound) is 65.8%.

Consider `COc1cccc2nc(C#Cc3cccnc3)ccc12` [Example 20, 5-Methoxy-2-(pyridine-3-ylethynyl)quinoline], for which the inhibition at 1 µM in data set [1] (1 μM compound) was 67.7%. Moreover, the inhibition at 10 µM in data set [1] (10 μM compound) stood at 67.7%.

Regarding `CCOc1cccc2nc(C#Cc3cccnc3)ccc12` [Example 21, 5-Ethoxy-2-(pyridine-3-ylethynyl)quinoline], the inhibition at 1 µM in data set [1] (1 μM compound) is 47.2%. The inhibition at 10 µM in data set [1] (10 μM compound) amounted to 66.6%.

With `CC(C)(C)C(=O)Oc1cccc2nc(C#Cc3cccnc3)ccc12` [Example 22, 2-(Pyridine-3-ylethynyl)quinoline-5-ylpivalate], the figures for the “% Inhibition rate (mGluR5)” value in data set [1] (1 μM compound) and in data set [1] (10 μM compound) were 10.56% and 28.5%, respectively.

On to `Oc1cccc2nc(C#Cc3cccnc3)ccc12` [Example 23, 2-(Pyridine-3-ylethynyl)quinoline-5-ol], for which, in data set [1] (1 μM compound), the inhibition at 1 µM was determined as 25.2%. For the same compound, the inhibition at 10 µM in data set [1] (10 μM compound) was 17.6%.

Take `Clc1cccc2nc(C#Cc3cccnc3)ccc12` [Example 24, 5-Chloro-2-(pyridine-3-ylethynyl)quinoline]: the inhibition at 1 µM in data set [1] (1 μM compound) turned out to be 11.2%. The inhibition at 10 µM in data set [1] (10 μM compound) stood at 28.4%.

With `Brc1cccc2nc(C#Cc3cccnc3)ccc12` [Example 25, 5-Bromo-2-(pyridine-3-ylethynyl)quinoline], in data set [1] (1 μM compound), the inhibition at 1 µM was determined as 22%. For the same compound, in data set [1] (10 μM compound), the inhibition at 10 µM turned out to be 40.1%.

On to `CC(C)(C)C(=O)Oc1cccc2nc(C#Cc3ccccn3)ccc12` [Example 27, 2-(Pyridine-2-ylethynyl)quinoline-5-ylpivalate], for which the “% Inhibition rate (mGluR5)” value in data set [1] (1 μM compound) was determined as 17.12%; in data set [1] (10 μM compound) it was 62.44%.

As to `Oc1cccc2nc(C#Cc3ccccn3)ccc12` [Example 28, 2-(Pyridine-2-ylethynyl)quinoline-5-ol], in data set [1] (1 μM compound), the inhibition at 1 µM was 17.4%. In data set [1] (10 μM compound), the inhibition at 10 µM amounted to 22.1%.

`Brc1cccc2nc(C#Cc3ccccn3)ccc12` [Example 29, 5-Bromo-2-(pyridine-2-ylethynyl)quinoline]: the inhibition at 1 µM in data set [1] (1 μM compound) came out at 56.7%. In addition, the inhibition at 10 µM in data set [1] (10 μM compound) came to 77.5%.

As to `Fc1cccnc1C#Cc1ccc2ccccc2n1` [Example 30, 2-((3-Fluoropyridine-2-yl)ethynyl)quinoline], the inhibition at 1 µM in data set [1] (1 μM compound) worked out at 31.3%. Also, the inhibition at 10 µM in data set [1] (10 μM compound) stood at 55.2%.

As for `Cc1cccnc1C#Cc1ccc2ccccc2n1` [Example 31, 2-((3-Methylpyridine-2-yl)ethynyl)quinoline], the inhibition at 1 µM in data set [1] (1 μM compound) was 18.9%. Moreover, the inhibition at 10 µM in data set [1] (10 μM compound) was determined as 40.1%.

As to `FC(F)(F)c1ccnc(C#Cc2ccc3ccccc3n2)c1` [Example 32, 2-((4-(Trifluoromethyl)pyridine-2-yl)ethynyl)quinoline], in data set [1] (1 μM compound), the inhibition at 1 µM is 23.3%. In data set [1] (10 μM compound), the inhibition at 10 µM amounted to 58%.

With `N#Cc1ccnc(C#Cc2ccc3ccccc3n2)c1` [Example 33, 2-(Quinoline-2-ylethynyl)isonicotinonitrile], the inhibition at 1 µM in data set [1] (1 μM compound) was determined as 35.2%. Further, the inhibition at 10 µM in data set [1] (10 μM compound) worked out at 76.1%.

For `Cc1ccnc(C#Cc2ccc3ccccc3n2)c1` [Example 34, 2-((4-Methylpyridine-2-yl)ethynyl)quinoline], in data set [1] (1 μM compound), the inhibition at 1 µM came out at 21.9%. Besides, the inhibition at 10 µM in data set [1] (10 μM compound) was 66.5%.

For the compound `FC(F)(F)c1ccc(C#Cc2ccc3ccccc3n2)nc1` [Example 35, 2-((5-(Trifluoromethyl)pyridine-2-yl)ethynyl)quinoline], the inhibition at 1 µM in data set [1] (1 μM compound) was 13%. For the same compound, the inhibition at 10 µM in data set [1] (10 μM compound) came out at 50.7%.

Regarding `Fc1ccc(C#Cc2ccc3ccccc3n2)nc1` [Example 36, 2-((5-Fluoropyridine-2-yl)ethynyl)quinoline], the inhibition at 1 µM in data set [1] (1 μM compound) amounted to 33.9%. Also, in data set [1] (10 μM compound), the inhibition at 10 µM was 63.3%.

As to `Cc1ccc(C#Cc2ccc3ccccc3n2)nc1` [Example 37, 2-((5-Methylpyridine-2-yl)ethynyl)quinoline], the inhibition at 1 µM in data set [1] (1 μM compound) was 29%. The inhibition at 10 µM in data set [1] (10 μM compound) was found to be 66.3%.

With `FC(F)(F)c1cccc(C#Cc2ccc3ccccc3n2)n1` [Example 38, 2-((6-(Trifluoromethyl)pyridine-2-yl)ethynyl)quinoline], the inhibition at 1 µM in data set [1] (1 μM compound) stood at 15.8%. Also, in data set [1] (10 μM compound), the inhibition at 10 µM turned out to be 28.7%.

With `Fc1cccc(C#Cc2ccc3ccccc3n2)n1` [Example 40, 2-((6-Fluoropyridine-2-yl)ethynyl)quinoline], in data set [1] (1 μM compound), the inhibition at 1 µM was 29.6%. Further, the inhibition at 10 µM in data set [1] (10 μM compound) amounted to 46.9%.

In the case of `COc1cccc(C#Cc2ccc3ccccc3n2)n1` [Example 41, 2-((6-Methoxypyridine-2-yl)ethynyl)quinoline], the inhibition at 1 µM in data set [1] (1 μM compound) is 16.6%. The inhibition at 10 µM in data set [1] (10 μM compound) came to 48.6%.

On to `C(#Cc1ncccn1)c1ccc2ccccc2n1` [Example 42, 2-(Pyrimidine-2-ylethynyl)quinoline], for which the inhibition at 1 µM in data set [1] (1 μM compound) was 17.1%. The inhibition at 10 µM in data set [1] (10 μM compound) was found to be 28.6%.

Consider `FC(F)(F)c1ccnc(C#Cc2ccc3ccccc3n2)n1` [Example 43, 2-((4-(Trifluoromethyl)pyrimidine-2-yl)ethynyl)quinoline], for which, in data set [1] (1 μM compound), the inhibition at 1 µM stood at 17.3%. In data set [1] (10 μM compound), the inhibition at 10 µM turned out to be 15.9%.

With `Fc1cnc(C#Cc2ccc3ccccc3n2)nc1` [Example 44, 2-((5-Fluoropyrimidine-2-yl)ethynyl)quinoline], the inhibition at 1 µM in data set [1] (1 μM compound) came to 16%. In addition, the inhibition at 10 µM in data set [1] (10 μM compound) stood at 15.6%.

Consider `C(#Cc1ccc2ccccc2n1)c1cncnc1` [Example 45, 2-(Pyrimidine-5-ylethynyl)quinoline], for which the inhibition at 1 µM in data set [1] (1 μM compound) is 13.6%. For the same compound, the inhibition at 10 µM in data set [1] (10 μM compound) was determined as 22.4%.
